Laboratory results as given in US7291486B2, “Genetically modified cells and methods for converting (R)-methylmalonyl CoA to (S)-methylmalonyl CoA” (KOSAN Biosciences, Inc., priority 1999, dated 2007).
Values belong to the molecule of their own block, whether it stands above or below them.

Key:
[1] = Stability of acyl-CoAs in TCA and mutase assay buffer (HPLC); assay type: physicochemical; details: mutase assay conditions, 30° C.
Method: To test whether acyl-CoAs degrade in TCA, the following tests were conducted. The CoA mix consisted of 1.6 mM each of malonyl-, methylmalonyl-, succinyl-, acetyl-, and propionyl-CoA, plus 0.5 mM CoA. An aliquot (10 μL) of this mix was added to 100 μL 10% TCA, 50 μL were immediately injected to the HPLC for CoA analysis, and the remainder was promptly frozen on dry ice. The frozen portion was then thawed and loaded immediately to the HPLC. Again, 10 μL of the CoA mix were added to 100 μL 10% TCA, 50 μL were left on ice for 15 minutes and then injected to the HPLC, the remainder was left at 4° C. overnight and injected to the HPLC the next morning. The area under each CoA peak was noted. This same procedure was followed but using a mixture of TCA and buffer A from the mutase assay.
The CoA analysis described here is carried out on cells which are lysed in 10% TCA. […] Thus, the CoAs are stable in TCA and in the mutase assay buffer after the cells are lysed or after the assays are completed, and prior to HPLC analysis.
Although the CoAs are stable in TCA and buffer at 4° C., they degraded at 30° C., the temperature at which the mutase assay was performed. In five minutes under the assay conditions, about 4% of the methylmalonyl-CoA hydrolyzed to CoA. […] Thus, the mutase assay is suboptimal for extremely quantitative results.

[2] = Spontaneous chemical epimerization between (R)- and (S)-mm-CoA; assay type: physicochemical; details: in 15 minutes
[3] = Epimerase assay coupled to transcarboxylase and malate dehydrogenase, crude E. coli extracts; assay type: biochemical; details: 30° C.
Method: Cells of strain BL2] (DE3) containing pET-epsherm, pET-epcoel, pET-epsub, or a control pET vector were grown overnight at 37° C. in 2 mL LB containing 100 μg/ml carbenicillin. The starter culture (250 μL) was used to inoculate 25 mL LB containing 100 μg/ml carbenicillin. The cultures were grown at 37° C. to an OD of approximately 0.4, then induced with IPTG to 1 mM final concentration and grown for an additional 3 hours at 30° C. The cells were collected by centrifugation at 4000 rpm for 10 minutes, and the pellets were stored at −80° C. prior to assay. […]
Epimerase activity was measured in crude extracts of E. coli harboring either pET-epsherm, pET-epcoel, pET-epsub, or a control pET vector. The epimerase assay couples transcarboxylase, which converts (S)-methylmalonyl-CoA into propionyl-CoA, to malate dehydrogenase, which converts NADH into NAD^+, producing a decrease in absorbance at 340 nm. […] When an extract containing epimerase is added to the assay, the (R)-isomer is converted to (S)—, resulting in a further decrease in absorbance. […]
The pellet from approximately 20 mL of culture was thawed and resuspended in 2 mL 1X assay buffer containing a protease inhibitor cocktail tablet. […] The reaction was initiated with (2R,2S)-methylmalonyl-CoA and the decrease in absorbance at 340 nm was monitored, reflecting the disappearance of the 2S isomer. […]

rate of hydrolysis relative to methylmalonyl-CoA [1]: comparable rate
Molecule: CC(C)(COP(=O)(O)OP(=O)(O)OC[C@H]1O[C@@H](n2cnc3c(N)ncnc32)[C@H](O)[C@@H]1OP(=O)(O)O)[C@@H](O)C(=O)NCCC(=O)NCCSC(=O)CCC(=O)O [succinyl-CoA]

hydrolyzed to CoA ([1]; five minutes): about 4%
spontaneous chemical epimerization between (R)- and (S)-mm-CoA [2]: approximately 3%
Molecule: CC(C(=O)O)C(=O)SCCNC(=O)CCNC(=O)[C@H](O)C(C)(C)COP(=O)(O)OP(=O)(O)OC[C@H]1O[C@@H](n2cnc3c(N)ncnc32)[C@H](O)[C@@H]1OP(=O)(O)O (stereo partly shown) [methylmalonyl-CoA]

B1: P. shermanii epimerase: methylmalonyl-CoA epimerase from Propionibacterium shermanii expressed in E. coli, SEQ ID NO: 2 (protein)
chain: MSNEDLFICIDHVAYACPDADEASKYYQETFGWHELHREENPEQGVVEIMMAPAAKLTEHMTQVQVMAPLNDESTVAKWLAKHNGRAGLHHMAWRVDDIDAVSATLRERGVQLLYDEPKLGTGGNRINFMHPKSGKGVLIELTQYPKN
modifications: Deduced amino acid sequence of the epimerase gene sequence
specific activity [3]: approximately 30 units/mg
